These results are taken from patent US5462861A, “Method for improving enzyme activities with noble gases” (American Air Liquide, Chicago Research Center, priority 1993, dated 1995).

The subject of test [1] is α-D-glucosidase. The test is described as follows: α-D-glucosidase activity under gas. The settings on record: FIG. 31. Format: biochemical. The protocol:
Solution preparation: Optimized w/v solutions are prepared by diluting the enzyme (units/ml) and the substrate (μg/ml) in appropriate buffer (optimized pH and molarity for enzymes). The solutions are used for gas experiments at once to avoid loss of activity. Various enzyme and substrate concentrations and inhibitors may be employed. Physical parameters are varied as required. […] Gas-tight serum vials are filled with enzyme and solvent. Sufficient gas is consecutively bubbled in the cuvets and serum vials, with a 1-hr wait between injections to maximize equilibration of gas. All syringes and dead spaces are purged before filling with the appropriate gas. The amount of gas used has been measured sufficient to saturate the solution required. Spectrophotometric time-drive, reaction rate, and kinetic analyses: cuvets and serum vials are saturated with gas 40 minutes before the run. A gas-filled syringe is used to retrieve 0.5 ml of enzyme solution to avoid air contact. […] Changes in the rate or final equilibrium of the reaction versus ambient air are recorded. Comparison is also made with added oxygen, and with deoxygenation. Some samples are also prepared under pressure.

For test [2], the system named is tyrosinase. The test is described as follows: Oxygen addition experiment, tyrosinase. Format: biochemical. The protocol:
(§1) In a complete experiment, an enzyme at optimal pH and buffering salt concentration is reacted with 5 substrate concentrations in solution with noble gas at 1 atm. […] Controls are also run after evacuation of solution by vacuum. The reaction is monitored colorimetrically in a scanning spectrophotometer in real time, and the signals are treated mathematically to obtain rate and yield differences. Sample numbers are constant and sufficient to ensure significance of results. All parameters are independently controlled and measured, and more complex experiments are occasionally carried out.

Test [3] relates to glucosidase. As for the experimental part:
as §1

Test [4] deals with phenylalanine ammonia lyase. The test is described as follows: Phenylalanine ammonia lyase activity under gas. Format: biochemical. The settings on record: FIG. 32. As for the experimental part: (§2) Solution preparation: Optimized w/v solutions are prepared by diluting the enzyme (units/ml) and the substrate (μg/ml) in appropriate buffer (optimized pH and molarity for enzymes). The solutions are used for gas experiments at once to avoid loss of activity. Various enzyme and substrate concentrations and inhibitors may be employed. Physical parameters are varied as required.
(§3) Preparation of samples: Cuvets are filled with 2 ml of substrate solution by means of a gas-tight syringe. Gas-tight serum vials are filled with enzyme and solvent. Sufficient gas is consecutively bubbled in the cuvets and serum vials, with a 1-hr wait between injections to maximize equilibration of gas. All syringes and dead spaces are purged before filling with the appropriate gas. The amount of gas used has been measured sufficient to saturate the solution required.
(§4) Spectrophotometric time-drive, reaction rate, and kinetic analyses: cuvets and serum vials are saturated with gas 40 minutes before the run. A gas-filled syringe is used to retrieve 0.5 ml of enzyme solution to avoid air contact. The 0.5 ml syringe injections of enzyme are made simultaneously to effect a common starting time to for the samples. 7 gases (air, O2, N2, Ne, Ar, Kr, Xe) are run at various temperatures each (from 0° to 60° ). Changes in the rate or final equilibrium of the reaction versus ambient air are recorded. Comparison is also made with added oxygen, and with deoxygenation. Some samples are also prepared under pressure.
as §1

The subject of test [5] is Tyrosinase. The test is described as follows: Tyrosinase-L-tyrosine reaction, solution saturated with gas. The test is classed as biochemical, Mushroom. The protocol: as §2, §3, §4
1. Solution preparation: 10% w/v solutions are prepared by diluting the enzyme (units/ml) and the substrate (μg/ml) in Sodium Phosphate buffer (pH 6.85, optimized pH for enzymes). The solutions are stored in refrigerator (0°-5° C.) and used for gas experiments within 2 or 3 days to avoid loss of activity.
6. Preparation of run samples: Acrylic cuvets are filled with 2 ml of substrate solution by means of a gas tight syringe. Gastight serum vials are filled with enzyme. 3×10 cc of gas are consecutively bubbled in the cuvets and serum vials, with a […] between injections. This represents a 10× displacement of dead volume while maximizing equilibration of gas. All syringes and dead spaces are purged before filling with the appropriate gas. After the third 10 cc injection, the cuvets and serum vials are left overnight under two 10 cc syringes filled with the appropriate gas in refrigerator at 0°-5° C.
8. Spectrophotometric runs: The cuvets and serum vials are filled with 10 cc of gas 40 min before the run. A gas-filled syringe is used to retrieve 0.5 ml of enzyme solution to avoid air contact. The 0.5 ml syringe injections of enzyme are made simultaneously to effect a common starting time t0 for the samples. Seven gases (air, O2, N2, Ne, Ar, Kr, Xe) are run at five temperatures each (15° C., 20° C., 25° C., 30° C., 35° C.). Changes in the rate or final equilibrium of the reaction versus ambient air are recorded.
The optimal conditions are [E]/[S] (100 μg/ml)/(100 μg/ml), the changes in absorbance being observed at 305 nm.
3×10 cc of gas are bubbled in the silicone-sealed cuvets and serum vials (T-3754, T-7755), with an interval of 20 min (at 0°-5°C.) between each gas injection.
a. The silicone-sealed cuvets are removed from the refrigerator 40 min before the experimental run, filled with 10 cc of gas and left at room temperature (26° C.) under two 10 cc syringes.
The 0.5 ml syringe injections of enzyme are made simultaneously to effect a common starting time t0 for the samples.
200 points, 18 s intervals 1 hr run

Test [6] has as its target Phosphoglucose isomerase (Homo sapiens, UniProt P06744). The test is described as follows: Phosphoglucose isomerase activity under gas. Format: biochemical. The settings on record: 25° C., FIG. 35. As for the experimental part:
as §2, §3, §4, §1

The test system of test [7] is particulate sialidase. Particulars: Sandhoff et al, FEBS Letters 1976; cited from earlier work.
The conditions of test [8]: Schreiner; independent of oxygen partial pressure; cited from earlier work.

“Also recorded” adds a separate entry of the source.

For `FS(F)(F)(F)(F)F` [SF6, sulfur hexafluoride, reference compound], the “effect on α-D-glucosidase” value in test [1] is “enhancement”.
In the case of `O=O` [oxygen, reference compound], the “effect of oxygen on tyrosinase activity” value in test [2] (addition of a small amount oxygen) is on record as “enhanced tyrosinase activity slightly”. Further, the “maximum increase in activity of tyrosinase” value in test [2] (addition of oxygen to air) is 6%. In addition, the “effect of adding oxygen to glucosidase reactions” value in test [3] is “no observed effect”. Besides, the “effect on phenylalanine ammonia-lyase” value in test [4] is given as “enhancement”. Also, the “effect on tyrosinase-L-tyrosine reaction” value is “approximately the same effect” in test [5] (15° C.), “only a moderate inhibitory effect; also recorded: little effect; also recorded: no enhancing effect; also recorded: does not enhance” in test [5] (20° C.) and “inhibitory effect; also recorded: no longer enhances; also recorded: no enhancing effect” in test [5] (30° C.). Moreover, in test [5] (various temperatures (15-35° C.)), the “temperature dependence of the effect on tyrosinase” value is “curves obtained with oxygen instead of air are identical; also recorded: saturates at 30 °C”. In addition, in test [1], the “effect on α-D-glucosidase” value is “enhancement”. Moreover, the “effect on phosphoglucose isomerase” value in test [6] is recorded as “inhibition”.
Consider `FC(F)(F)C(Cl)Br` (centres unmarked) [halothane], for which, in test [7], the “effect on activity of particulate sialidase” value is recorded as “enhance the activity”.
Consider `[N-]=[N+]=O` [nitrous oxide], for which the “inhibition per atmosphere of added gas” value in test [8] is on record as 1.9 % inhibition per atmosphere. The “effect on activity of particulate sialidase” value in test [7] is reported as “enhance the activity”.
